Test results from PMC5478869, “New Hydroxycinnamic Acid Esters as Novel 5-Lipoxygenase Inhibitors That Affect Leukotriene Biosynthesis” (Mediators of Inflammation, 2017).
Entries after “also recorded” stand apart in the source; their conditions may differ.

Experiments:
5-LO [1] = biological target: T1, 5-LO (Homo sapiens, UniProt P09917); assay: Biosynthesis of 5-LO products in HEK293 cells expressing 5-LO and FLAP (A23187 + arachidonic acid); assay type: cell-based; design: expressed in transfected cells; host or cells: HEK293; conditions: 1 μM compound, 10 μM A23187 + 10 μM arachidonic acid, 15 min
T1 sequence (P09917 1-674): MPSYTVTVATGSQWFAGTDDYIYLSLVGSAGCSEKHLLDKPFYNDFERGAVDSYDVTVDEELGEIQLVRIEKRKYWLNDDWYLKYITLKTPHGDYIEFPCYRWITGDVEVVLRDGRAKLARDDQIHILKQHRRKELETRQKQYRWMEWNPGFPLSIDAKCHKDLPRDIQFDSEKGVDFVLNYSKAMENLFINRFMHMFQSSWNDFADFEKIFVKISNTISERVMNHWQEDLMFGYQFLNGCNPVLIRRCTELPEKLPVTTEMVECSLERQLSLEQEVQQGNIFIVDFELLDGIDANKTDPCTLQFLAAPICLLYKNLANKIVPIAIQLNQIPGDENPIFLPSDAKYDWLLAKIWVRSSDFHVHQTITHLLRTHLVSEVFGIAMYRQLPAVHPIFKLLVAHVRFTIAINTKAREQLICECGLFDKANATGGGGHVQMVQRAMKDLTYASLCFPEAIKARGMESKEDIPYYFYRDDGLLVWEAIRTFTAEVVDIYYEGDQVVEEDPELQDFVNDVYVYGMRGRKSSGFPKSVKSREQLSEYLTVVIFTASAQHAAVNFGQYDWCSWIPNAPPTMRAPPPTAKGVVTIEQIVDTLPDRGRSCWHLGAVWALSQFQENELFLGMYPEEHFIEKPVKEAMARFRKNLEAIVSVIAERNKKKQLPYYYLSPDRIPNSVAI
Method: HEK293 cells expressing both 5-LO and the 5-lipoxygenase activating protein (FLAP) were generated as previously reported. For cell stimulation of 5-LO products, transfected HEK293 cells were collected following trypsinization and washed and the cell pellet was resuspended in Hank's balanced salt solution (HBSS, Lonza) containing 1.6 mM CaCl2 at a concentration of 5 × 10^5 cells/ml. Cells were preincubated with each compound at the indicated concentration for 5 min at 37°C. Cells were then stimulated for 15 minutes at 37°C with the addition of 10 μM calcium ionophore A23187 (Sigma-Aldrich) and 10 μM arachidonic acid (Cayman Chemical). Stimulations were stopped by adding 0.5 volume of cold MeOH:MeCN (1 : 1) containing 100 ng/ml of 19-OH prostaglandin B2 (PGB2) as internal standard. Samples were then processed and 5-LO products were analyzed by reversed-phase high-performance liquid chromatography (RP-HPLC) as described previously.
To evaluate CAPE analogues as potential inhibitors of the biosynthesis of 5-LO products, a first series of experiments was performed in HEK293 cells expressing both 5-LO and FLAP as previously described. HEK293 cells were first preincubated with the test compounds (1 μM), then stimulated in the presence of arachidonic acid and calcium ionophore A23187 to induce the biosynthesis of 5-LO products (Figure 2(a)). […] Based on these criteria, compounds 9, 13, 14, 15, 16, and 19 were selected for subsequent analyses.
Figure 2 Effect of the test compounds on the biosynthesis of 5-LO products in transfected HEK293 cells (a) and thapsigargin-stimulated PMNL (b). (a) HEK293 cells expressing both 5-LO and FLAP were incubated in presence of the indicated compounds (1 μM) or their diluent (control, 0.5% DMSO) for 5 min, then biosynthesis of 5-LO products was initiated with the addition of 10 μM calcium ionophore A23187 and 10 μM arachidonic acid for 15 min. After stimulation, reactions were stopped and samples were processed for analysis of 5-LO products by RP-HPLC. Total 5-LO products measured represent the sum of LTB4, its trans isomers, and 5-hydroxyeicosatetraenoic acid. (b) Freshly isolated human PMNL were incubated in presence of test compounds (or their diluent control, DMSO 0.5%) at the indicated concentrations for 5 min. Biosynthesis of the 5-LO products was initiated with the addition of 1 μM of thapsigargin, followed by a 15 min incubation period at 37°C. The stimulation was then stopped and samples were processed for RP-HPLC analysis and total 5-LO products quantification. Total 5-LO products measured represent the sum of LTB4, its trans isomers, 20-COOH- and 20-OH-LTB4 and 5-hydroxyeicosatetraenoic acid. Data are expressed as means ± SEM of at least 3 independent experiments. ^∗Different from control, as determined by one-way ANOVA with Dunnett's multiple comparison test (p < 0.05).

arachidonic acid release = conditions: cited from earlier work
5-LO [2] = biological target: T1, 5-LO; design: endogenous in cells; host or cells: human polymorphonuclear leukocytes (PMNL) isolated from whole blood; method as in PMID 22347509; conditions: cited from earlier work

SMILES	Inhibition of biosynthesis of 5-LO products in transfected HEK293 cells (5-LO [1])	Inhibition of liberation of cellular arachidonic acid (previously shown) (arachidonic acid release)	Inhibition of biosynthesis of 5-LO products in whole blood (previous studies) (5-LO [2])
COC(=O)/C=C/c1ccc(O)c(O)c1 [Compound 3]	without inhibitory activity	–	–
CCOC(=O)/C=C/c1ccc(O)c(O)c1 [Compound 4, ethyl caffeate]	without inhibitory activity	–	–
O=C(/C=C/c1ccc(O)c(O)c1)Oc1ccccc1 [Compound 10]	not as effective at inhibiting 5-LO as CAPE (2)	–	–
O=C(/C=C/c1ccc(O)c(O)c1)OCc1ccccc1 [Compound 11]	not as effective at inhibiting 5-LO as CAPE (2)	–	–
CC(c1cc2ccccc2s1)N(O)C(N)=O (stereo not shown) [Zileuton (1), zileuton, reference compound]	less effective than the selected compounds; also recorded: significantly inhibited the biosynthesis of 5-LO products	previously shown to inhibit the liberation of cellular arachidonic acid	slightly better inhibitor of the biosynthesis of 5-LO products in whole blood than CAPE (2)
